Six compounds from PMC12464775, “Selective and Potent Peptide Binders of RNF43 for Wnt Signaling Inhibition” (ACS Central Science, 2025) can be followed below.

For one assay, the system named is ZNRF3. Briefly: SPR binding to ZNRF3 (specificity). As to conditions: for binding to ZNRF3: protein immobilized, untagged DCP injected. As for the experimental part:
(§1) SPR measurement was carried out using a Biacore S200 (Cytiva) instrument, with PBS-T (PBS with 0.05% Tween 20, pH 7.4) as the buffer. Biotinylated protein was captured on three sensor channels of Series S SA Sensors (Cytiva). The sensors were then blocked with 0.1 mg/mL biotin. DCPs were injected onto the sensor in a 3× concentration series. The data were double-referenced by subtracting the signal from a sensor channel coated with biotin only and the signal from a buffer injection. For data analysis, binding data were fitted using the manufacturer’s software. ,
On the technique in general: SPR reads the build-up and loss of mass on a sensor chip optically.

A further assay deals with T1, human RNF43 (Homo sapiens, UniProt Q68DV7).
T1 construct: ECD of the human RNF43 protein was incubated with EZ-link-NHS-PEG4-biotin; biotin (chemical label, NHS-PEG4-biotin on amines, 1-2 per protein)
T1 sequence (Q68DV7 24-197 limits assumed): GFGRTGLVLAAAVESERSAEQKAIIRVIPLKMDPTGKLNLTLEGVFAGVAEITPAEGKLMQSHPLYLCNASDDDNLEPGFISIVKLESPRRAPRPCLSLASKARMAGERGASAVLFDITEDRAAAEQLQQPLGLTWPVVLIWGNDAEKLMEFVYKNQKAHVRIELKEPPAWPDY
Put plainly: SPR binding of DCPs to immobilized human RNF43 ECD. The conditions noted are these: SPR KD; each round of affinity maturation versus its parent DCP. As for the experimental part:
ECD of the human RNF43 protein was incubated with EZ-link-NHS-PEG4-biotin (Thermo Fisher, 1:1, 50 μM) for 1 h at room temperature (RT). The reaction was quenched by addition of 10 mM Glycine, followed by dialysis into phosphate buffered saline (PBS) overnight at 4 °C. Finally, the biotinylated protein was analyzed using LC-MS to ensure that each protein is labeled with 1–2 biotin molecules. ,
as §1

Bridge positions count the residues as written; N and C are the ends. Peptide text beside a SMILES is read from it. * marks the point of attachment. Biotin = O=C1N[C@H]2[C@H](CS[C@H]2CCCCC(=O)*)N1

Turning to `CC[C@H](C)[C@H](NC(=O)[C@@H]1CSSC[C@H](NC(=O)[C@H](CO)NC(=O)[C@H](Cc2c[nH]cn2)NC(=O)[C@@H](NC(=O)[C@@H]2CCCN2C(=O)[C@H](CCC(N)=O)NC(=O)[C@@H](NC(=O)[C@@H]2CSSC[C@H](NC(=O)[C@H](CCC(N)=O)NC(=O)[C@@H](N)CCC(=O)O)C(=O)N[C@@H](CCCNC(=N)N)C(=O)N[C@@H](CCC(=O)O)C(=O)N[C@@H](Cc3c[nH]cn3)C(=O)N[C@@H](Cc3ccccc3)C(=O)N[C@@H](Cc3c[nH]cn3)C(=O)N[C@@H](CC(=O)O)C(=O)N2)C(C)C)[C@@H](C)CC)C(=O)N[C@H]2CSSC[C@H](NC(=O)[C@H](CC(=O)O)NC(=O)[C@H](CC(C)C)NC(=O)[C@@H]3CCCN3C(=O)[C@H](Cc3c[nH]c4ccccc34)NC2=O)C(=O)N[C@@H](CCCNC(=N)N)C(=O)N[C@@H](Cc2c[nH]c3ccccc23)C(=O)N[C@@H](C)C(=O)N[C@@H](C(C)C)C(=O)N[C@@H](CCCCN)C(=O)N[C@@H](Cc2ccc(O)cc2)C(=O)N[C@@H](CCC(N)=O)C(=O)N[C@@H](Cc2c[nH]c3ccccc23)C(=O)N[C@@H](Cc2ccccc2)C(=O)N[C@@H](Cc2c[nH]c3ccccc23)C(=O)N[C@@H](CC(=O)O)C(=O)N1)C(=O)NCC(=O)O` [GUR-1.6.12.16] (H-EQCREHFHDCVQPIHSCCWPLDCRWAVKYQWFWDCIG-OH; disulfide 3-10, 17-35, 18-23), the “binding to ZNRF3” value in the assay on ZNRF3 is “lack of binding”. `CC[C@H](C)[C@H](NC(=O)[C@@H]1CSSC[C@H](NC(=O)[C@H](CCC(N)=O)NC(=O)[C@@H](NC(=O)[C@H](Cc2ccc(O)cc2)NC(=O)[C@@H](NC(=O)[C@H](CC(C)C)NC(=O)CNC(=O)[C@@H]2CSSC[C@H](NC(=O)[C@H](CCC(N)=O)NC(=O)[C@@H](N)CCC(=O)O)C(=O)N[C@@H](CC(=O)O)C(=O)N[C@@H](CCC(N)=O)C(=O)N[C@@H](CC(=O)O)C(=O)N[C@@H](C)C(=O)N[C@@H](CO)C(=O)N[C@@H](C)C(=O)N2)[C@@H](C)CC)[C@@H](C)O)C(=O)N[C@H]2CSSC[C@H](NC(=O)[C@H](CC(=O)O)NC(=O)[C@H](CC(C)C)NC(=O)[C@@H]3CCCN3C(=O)[C@H](Cc3c[nH]c4ccccc34)NC2=O)C(=O)N[C@@H](CCCNC(=N)N)C(=O)N[C@@H](Cc2c[nH]c3ccccc23)C(=O)N[C@@H](C)C(=O)N[C@@H](C(C)C)C(=O)N[C@@H](CCCCN)C(=O)N[C@@H](Cc2ccc(O)cc2)C(=O)N[C@@H](CCC(N)=O)C(=O)N[C@@H](Cc2c[nH]c3ccccc23)C(=O)N[C@@H](Cc2ccccc2)C(=O)N[C@@H](Cc2c[nH]c3ccccc23)C(=O)N[C@@H](CC(=O)O)C(=O)N1)C(=O)NCC(=O)O` [GUR-1.6.12.12] (H-EQCDQDASACGLIYTQCCWPLDCRWAVKYQWFWDCIG-OH; disulfide 3-10, 17-35, 18-23): the “binding to ZNRF3” value with ZNRF3 is listed as “lack of binding”.

Take `CC[C@H](C)[C@H](NC(=O)[C@@H]1CSSC[C@@H]2NC(=O)[C@H](CC(=O)O)NC(=O)[C@H](CC(C)C)NC(=O)[C@H](Cc3ccc(O)cc3)NC(=O)[C@H](Cc3ccc(O)cc3)NC(=O)[C@@H]3CCCN3C(=O)[C@H]([C@@H](C)CC)NC(=O)[C@@H]3CSSC[C@H](NC(=O)[C@H](CCC(=O)O)NC(=O)[C@H](CC(C)C)NC(=O)[C@@H]4CCCN4C(=O)[C@H](CCC(=O)O)NC(=O)[C@H](CSSC[C@H](NC(=O)[C@@H](N)CCC(N)=O)C(=O)N[C@@H](C(C)C)C(=O)N[C@@H](CCCCN)C(=O)N[C@@H](CCCCN)C(=O)N[C@@H](CC(=O)O)C(=O)N[C@@H](CCC(=O)O)C(=O)N[C@@H](CC(C)C)C(=O)N3)NC2=O)C(=O)N[C@@H](CCCNC(=N)N)C(=O)N[C@@H](Cc2c[nH]c3ccccc23)C(=O)N[C@@H](C)C(=O)N[C@@H](C(C)C)C(=O)N[C@@H](CCCCN)C(=O)N[C@@H](Cc2ccc(O)cc2)C(=O)N[C@@H](CCC(N)=O)C(=O)N[C@@H](Cc2c[nH]c3ccccc23)C(=O)N[C@@H](Cc2ccccc2)C(=O)N[C@@H](Cc2c[nH]c3ccccc23)C(=O)N[C@@H](CC(=O)O)C(=O)N1)C(=O)NCC(=O)O` [GUR-1.6] (H-QCVKKDELCIPYYLDCCEPLECRWAVKYQWFWDCIG-OH; disulfide 2-17, 9-22, 16-34; N-terminus assumed): at human RNF43, the “improvement in affinity for RNF43 over the previous generation” value came to 10 fold.

As for `CC[C@H](C)[C@H](NC(=O)[C@@H]1CSSC[C@H](NC(=O)[C@H](CCC(N)=O)NC(=O)[C@H](CO)NC(=O)[C@H](Cc2ccc(O)cc2)NC(=O)[C@H](CCCCN)NC(=O)[C@H](Cc2ccccc2)NC(=O)[C@H](CC(N)=O)NC(=O)[C@@H]2CSSC[C@H](NC(=O)[C@H](CCC(N)=O)NC(=O)[C@@H](N)CCC(=O)O)C(=O)N[C@@H](CC(=O)O)C(=O)N[C@@H](CCC(N)=O)C(=O)N[C@@H]([C@@H](C)O)C(=O)N[C@@H](CC(N)=O)C(=O)N[C@@H](CC(C)C)C(=O)N[C@@H](Cc3ccccc3)C(=O)N2)C(=O)N[C@H]2CSSC[C@H](NC(=O)[C@H](CC(=O)O)NC(=O)[C@H](CC(C)C)NC(=O)[C@@H]3CCCN3C(=O)[C@H](Cc3c[nH]c4ccccc34)NC2=O)C(=O)N[C@@H](CCCNC(=N)N)C(=O)N[C@@H](Cc2c[nH]c3ccccc23)C(=O)N[C@@H](C)C(=O)N[C@@H](C(C)C)C(=O)N[C@@H](CCCCN)C(=O)N[C@@H](Cc2ccc(O)cc2)C(=O)N[C@@H](CCC(N)=O)C(=O)N[C@@H](Cc2c[nH]c3ccccc23)C(=O)N[C@@H](Cc2ccccc2)C(=O)N[C@@H](Cc2c[nH]c3ccccc23)C(=O)N[C@@H](CC(=O)O)C(=O)N1)C(=O)NCC(=O)O` [GUR-1.6.12.4] (H-EQCDQTNLFCNFKYSQCCWPLDCRWAVKYQWFWDCIG-OH; disulfide 3-10, 17-35, 18-23), the “binding to ZNRF3” value in the assay on ZNRF3 was “lack of binding”.

With `CC[C@H](C)[C@H](NC(=O)[C@@H]1CSSC[C@H](NC(=O)[C@@H](NC(=O)[C@H](Cc2c[nH]cn2)NC(=O)[C@H](CO)NC(=O)[C@H](Cc2ccc(O)cc2)NC(=O)[C@H](CC(=O)O)NC(=O)[C@H](Cc2c[nH]cn2)NC(=O)[C@@H]2CSSC[C@H](NC(=O)[C@H](CCC(N)=O)NC(=O)[C@H](CCC(=O)O)NC(=O)CCCC[C@@H]3SC[C@@H]4NC(=O)N[C@@H]43)C(=O)N[C@@H]([C@@H](C)O)C(=O)N[C@@H](CO)C(=O)N[C@@H]([C@@H](C)O)C(=O)N[C@@H](CCC(N)=O)C(=O)N[C@@H](CC(=O)O)C(=O)N[C@@H](CC(C)C)C(=O)N2)C(C)C)C(=O)N[C@H]2CSSC[C@H](NC(=O)[C@H](CC(=O)O)NC(=O)[C@H](CC(C)C)NC(=O)[C@@H]3CCCN3C(=O)[C@H](Cc3c[nH]c4ccccc34)NC2=O)C(=O)N[C@@H](CCCNC(=N)N)C(=O)N[C@@H](Cc2c[nH]c3ccccc23)C(=O)N[C@@H](C)C(=O)N[C@@H](C(C)C)C(=O)N[C@@H](CCCCN)C(=O)N[C@@H](Cc2ccc(O)cc2)C(=O)N[C@@H](CCC(N)=O)C(=O)N[C@@H](Cc2c[nH]c3ccccc23)C(=O)N[C@@H](Cc2ccccc2)C(=O)N[C@@H](Cc2c[nH]c3ccccc23)C(=O)N[C@@H](CC(=O)O)C(=O)N1)C(=O)NCC(=O)O` [bio-GUR-1.6.12.2] (Biotin-EQCTSTQDLCHDYSHVCCWPLDCRWAVKYQWFWDCIG-OH; disulfide 3-10, 17-35, 18-23), in the assay with ZNRF3 (bio-GUR-1.6.12.2 on streptavidin sensor), the “binding to ZNRF3, peptide immobilized” value is listed as “without binding to ZNRF3”. In the case of `CC[C@H](C)[C@H](NC(=O)[C@@H]1CSSC[C@@H]2NC(=O)[C@H](CC(=O)O)NC(=O)[C@H](CC(C)C)NC(=O)[C@H](Cc3ccc(O)cc3)NC(=O)[C@H](Cc3ccc(O)cc3)NC(=O)[C@@H]3CCCN3C(=O)[C@H]([C@@H](C)CC)NC(=O)[C@@H]3CSSC[C@H](NC(=O)[C@H](CC(=O)O)NC(=O)[C@H](CC(C)C)NC(=O)[C@@H]4CCCN4C(=O)[C@H](Cc4c[nH]c5ccccc45)NC(=O)[C@H](CSSC[C@H](NC(=O)[C@@H](N)CCC(N)=O)C(=O)N[C@@H](C(C)C)C(=O)N[C@@H](CCCCN)C(=O)N[C@@H](CCCCN)C(=O)N[C@@H](CC(=O)O)C(=O)N[C@@H](CCC(=O)O)C(=O)N[C@@H](CC(C)C)C(=O)N3)NC2=O)C(=O)N[C@@H](CCCNC(=N)N)C(=O)N[C@@H](Cc2c[nH]c3ccccc23)C(=O)N[C@@H](C)C(=O)N[C@@H](C(C)C)C(=O)N[C@@H](CCCCN)C(=O)N[C@@H](Cc2ccc(O)cc2)C(=O)N[C@@H](CCC(N)=O)C(=O)N[C@@H](Cc2c[nH]c3ccccc23)C(=O)N[C@@H](Cc2ccccc2)C(=O)N[C@@H](Cc2c[nH]c3ccccc23)C(=O)N[C@@H](CC(=O)O)C(=O)N1)C(=O)NCC(=O)O` [GUR-1.6.12] (H-QCVKKDELCIPYYLDCCWPLDCRWAVKYQWFWDCIG-OH; disulfide 2-17, 9-22, 16-34; N-terminus assumed), on human RNF43, the “improvement in affinity for RNF43 over the previous generation” value is “slightly improved”.
